Results on 2 molecules are retold here after patent publication US20210355066A1 (CymaBay Therapeutics, Inc., priority 2020, published 2021).

For series [1] the following is noted: crystalline form. The text has this:
A weighed aluminum pan configured as the sample pan was placed on the […] side of the cell.

Series [2] deals with CYP 2C9 (Homo sapiens, UniProt P11712). The conditions noted are these: tolbutamide hydroxylation assay; relative to (S)-enantiomer; cited from earlier work.
Sequence of CYP 2C9 (P11712 whole entry, species assumed): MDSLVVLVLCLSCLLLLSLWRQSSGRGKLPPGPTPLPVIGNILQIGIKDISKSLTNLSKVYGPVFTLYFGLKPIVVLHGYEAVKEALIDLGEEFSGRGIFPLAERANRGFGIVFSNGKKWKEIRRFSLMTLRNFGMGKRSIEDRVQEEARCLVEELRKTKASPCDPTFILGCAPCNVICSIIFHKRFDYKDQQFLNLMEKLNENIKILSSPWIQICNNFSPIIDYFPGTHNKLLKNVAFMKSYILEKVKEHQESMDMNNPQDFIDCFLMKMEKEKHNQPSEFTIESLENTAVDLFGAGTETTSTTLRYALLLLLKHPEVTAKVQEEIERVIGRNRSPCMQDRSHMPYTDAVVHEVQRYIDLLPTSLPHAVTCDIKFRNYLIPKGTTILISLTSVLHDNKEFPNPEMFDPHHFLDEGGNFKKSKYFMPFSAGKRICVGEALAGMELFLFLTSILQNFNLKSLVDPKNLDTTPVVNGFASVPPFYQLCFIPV

In the case of “2-hydroxy-N,N,N-trimethylethan-1-aminium (2R)-2-(4-chlorophenyl)-2-[3-(trifluoromethyl)phenoxy]acetate [CB-0406 choline salt]”, the “stability to thermal stress” value in series [1] is recorded as “good stability to thermal stress”.

`O=C(O)[C@H](Oc1cccc(C(F)(F)F)c1)c1ccc(Cl)cc1` [CB-0406, (2R)-2-(4-chlorophenyl)-2-[3-(trifluoromethyl)phenoxy]acetic acid]: in series [2], the “fold less active as an inhibitor of CYP 2C9 than its (S)-enantiomer” value is “approximately 20 fold”.
